How the values were obtained:
[1] = molecular target: T1, NDM-1 (Klebsiella pneumoniae, UniProt C7C422); assay: NDM-1 inhibition, fluorogenic cephalosporin (FC5) hydrolysis; assay type: biochemical; details: enethiols 6 assayed as sodium salts; 10 min incubation; read-out: IC50 NDM-1
T1 construct: made in house
Protocol: (§1) Inhibition analyses against bacterial MBLs and SBLs were performed as described previously.[22], [24], [26] Residual enzyme activities were determined for a range of inhibitor concentrations. Non-linear regression fitting of IC50 curves was carried out using a three-parameter dose–response curve in GraphPad Prism. Errors in IC50 values are expressed as: σ(logIC50)/logIC50×IC50
(§2) We first screened the inhibitors against a representative set of presently clinically important and other MBLs[22], comprising both Class B1 enzymes (NDM-1, New Delhi MBL-1; VIM-2, Verona integron–encoded MBL-2; BcII, Bacillus cereus II MBL; SPM-1, São Paulo MBL-1; IMP-1, imipenemase MBL-1) and the Class B2 MBL CphA (carbapenem hydrolysing MBL from Aeromonas hydrophila).[22] The latter MBL (CphA) only utilises one active site Zn(II) ion in catalysis, whilst the others normally use two Zn(II) ions.
Figure S4: IC50 curves for NDM-1 inhibition time courses. Residual activities were calculated from the
(§3) initial rate of FC5 hydrolysis after incubation of the enzyme with the inhibitor for 10 minutes. […]

[2] = molecular target: T2, VIM-2 (Escherichia coli, UniProt Q5U7L7); assay: biochemical; details: enethiols 6 assayed as sodium salts; 10 min incubation; read-out: IC50 VIM-2 (converted)
T2 construct: made in house
Protocol: as §1
as §2, with “ions. We also screened the inhibitors against a representative panel of SBLs from different classes (TEM-1, Temoneira β-lactamase-1, class A; CTX-M-15, cefotaxime hydrolysing β-lactamase from Munich 15, class A, extended spectrum β-lactamase (ESBL); AmpC E. coli, class C, and OXA-10, oxacillinase-10, class D).” for “ions.”
Figure S6: IC50 curves for VIM-2 inhibition time courses. Residual activities were calculated from the
as §3

[3] = molecular target: T3, IMP-1 (Serratia marcescens, UniProt P52699); assay: IMP-1 inhibition, fluorogenic cephalosporin (FC5) hydrolysis; assay type: biochemical; details: enethiols 6 assayed as sodium salts; 10 min incubation; read-out: IC50 IMP-1 (converted)
T3 construct: made in house
T3 sequence (P52699 19-246, looked up, species assumed): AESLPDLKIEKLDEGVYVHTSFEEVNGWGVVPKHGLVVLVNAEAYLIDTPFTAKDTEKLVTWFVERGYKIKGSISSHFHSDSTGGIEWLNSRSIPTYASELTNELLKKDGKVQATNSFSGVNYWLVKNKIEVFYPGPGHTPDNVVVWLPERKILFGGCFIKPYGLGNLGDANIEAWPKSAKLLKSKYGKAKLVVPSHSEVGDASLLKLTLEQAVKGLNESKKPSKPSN
Protocol: as §1, §2
Figure S3: IC50 curves for IMP-1 inhibition time courses. Residual activities were calculated from the
initial rate of FC5 hydrolysis after incubation of the enzyme with the inhibitor for 10 minutes.

[4] = molecular target: SPM-1 (Pseudomonas aeruginosa, UniProt Q8G9Q0); assay: SPM-1 inhibition, fluorogenic cephalosporin (FC5) hydrolysis; assay type: biochemical; details: enethiols 6 assayed as sodium salts; 10 min incubation; read-out: IC50 SPM-1 (converted)
Sequence of SPM-1 (Q8G9Q0 entry or part of it): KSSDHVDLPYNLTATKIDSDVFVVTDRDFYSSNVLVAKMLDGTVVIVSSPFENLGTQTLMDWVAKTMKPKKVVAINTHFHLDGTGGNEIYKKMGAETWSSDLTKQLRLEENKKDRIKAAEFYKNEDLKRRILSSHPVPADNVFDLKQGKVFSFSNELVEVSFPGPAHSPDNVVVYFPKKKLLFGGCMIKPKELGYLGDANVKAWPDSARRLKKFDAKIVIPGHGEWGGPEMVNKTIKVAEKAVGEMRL
Protocol: as §1, §2
Figure S5: IC50 curves for SPM-1 inhibition time courses. Residual activities were calculated from the
as §3

[5] = molecular target: T4, BcII (Bacillus cereus, UniProt P04190); assay: biochemical; details: enethiols 6 assayed as sodium salts; 10 min incubation; read-out: IC50 BcII (converted)
T4 construct: made in house
T4 sequence (P04190 31-257): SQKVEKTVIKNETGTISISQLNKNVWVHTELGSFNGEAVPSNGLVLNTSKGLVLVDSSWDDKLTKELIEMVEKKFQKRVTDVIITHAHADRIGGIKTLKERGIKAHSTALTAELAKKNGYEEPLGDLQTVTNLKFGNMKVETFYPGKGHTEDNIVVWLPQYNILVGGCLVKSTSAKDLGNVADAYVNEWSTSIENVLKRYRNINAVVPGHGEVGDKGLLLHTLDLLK
Protocol: as §1, §2
Figure S2: IC50 curves for BcII inhibition time courses. Residual activities were calculated from the initial
rate of FC5 hydrolysis after incubation of the enzyme with the inhibitor for 10 minutes. […]

T1 sequence (C7C422 29-270, looked up, species assumed): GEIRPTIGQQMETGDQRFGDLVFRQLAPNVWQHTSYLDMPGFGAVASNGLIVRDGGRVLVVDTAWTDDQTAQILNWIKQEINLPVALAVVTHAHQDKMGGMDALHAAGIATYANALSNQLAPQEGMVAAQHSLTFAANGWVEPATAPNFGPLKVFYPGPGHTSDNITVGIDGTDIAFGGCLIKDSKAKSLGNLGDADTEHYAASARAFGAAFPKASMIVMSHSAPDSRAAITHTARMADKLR

Structure (SMILES)	IC50 [1] [µM]	IC50 [2] [µM]	IC50 [3] [µM]	IC50 [4] [µM]	IC50 [5] [µM]
O=C(O)CN1C(=O)/C(=C/c2csc3ccccc23)SC1=S [Compound 3L]	> 50	36.9 ± 0.2	> 50	13.9 ± 0.5	21.7 ± 2.4
O=C(O)CN1C(=O)/C(=C/c2ccccc2)SC1=S [Compound 3a]	> 50	36.8 ± 0.3	> 50	> 50	> 50
Cc1ccc(/C=C2\SC(=S)N(CC(=O)O)C2=O)cc1 [Compound 3b]	> 50	32 ± 0.7	> 50	> 50	> 50
O=C(O)CN1C(=O)/C(=C/c2ccc(F)cc2)SC1=S [Compound 3c]	> 50	34.5 ± 0.6	> 50	> 50	> 50
O=C(O)CN1C(=O)/C(=C/c2ccc(Br)cc2)SC1=S [Compound 3d]	> 50	> 50	> 50	39.7 ± 0.8	> 50
COc1ccc(/C=C2\SC(=S)N(CC(=O)O)C2=O)cc1 [Compound 3e]	> 50	> 50	> 50	> 50	> 50
O=C(O)CN1C(=O)/C(=C/c2ccccc2F)SC1=S [Compound 3f]	> 50	17.6 ± 0.7	> 50	> 50	> 50
O=C(O)CN1C(=O)/C(=C/c2ccccc2Cl)SC1=S [Compound 3g]	> 50	6.7 ± 0.2	43.2 ± 2.1	25.1 ± 1.5	> 50
O=C(O)CN1C(=O)/C(=C/c2ccccc2Br)SC1=S [Compound 3h]	> 50	> 50	32.5 ± 1.3	36.6 ± 0.8	> 50
O=C(O)CN1C(=O)/C(=C/c2ccccc2I)SC1=S [Compound 3i]	> 50	5.9 ± 0.1	22.4 ± 0.4	2 ± 0.5	31.7 ± 1
O=C(O)CN1C(=O)/C(=C/c2c(F)cccc2Cl)SC1=S [Compound 3j]	> 50	9.8 ± 2.8	43.7 ± 0.5	1.2 ± 0.3	> 50
O=C(O)CN1C(=O)/C(=C/c2c(F)ccc(F)c2F)SC1=S [Compound 3k]	> 50	47.6 ± 0.4	46.5 ± 0.7	8.8 ± 0.3	27 ± 2.2
O=C(O)CN1C(=O)/C(=C/c2c(Cl)cccc2Cl)SC1=S [Compound 3m]	> 50	0.6 ± 0.1	18.9 ± 0.8	3.5 ± 0.4	41.8 ± 2.3
O=C(O)CN1C(=O)/C(=C/c2cccc(Cl)c2Cl)SC1=S [Compound 3n]	> 50	7.6 ± 0.3	46.2 ± 1.4	1 ± 0.1	22.1 ± 1
O=C(O)CN1C(=O)/C(=C/c2cc(Cl)ccc2Cl)SC1=S [Compound 3o]	> 50	> 50	> 50	16.6 ± 1	> 50
O=C(O)CN1C(=O)/C(=C/c2c(F)cccc2F)SC1=S [Compound 3p]	> 50	6.8 ± 0.2	> 50	32.1 ± 2.3	> 50
Cc1cccc(C)c1/C=C1\SC(=S)N(CC(=O)O)C1=O [Compound 3q]	> 50	18.7 ± 1	> 50	> 50	> 50
CN1CCN(NC(=O)CN2C(=O)/C(=C/c3csc4ccccc34)SC2=S)CC1 [Compound 5L]	> 50	41.8	> 50	> 50	7.2
Cc1ccc(/C=C2\SC(=S)N(CC(=O)NN3CCN(C)CC3)C2=O)cc1 [Compound 5b]	28	> 50	> 50	> 50	> 50
CN1CCN(NC(=O)CN2C(=O)/C(=C/c3ccc(F)cc3)SC2=S)CC1 [Compound 5c]	> 50	> 50	> 50	> 50	> 50

Structure (SMILES)	IC50 [1] [µM]	IC50 [2] [µM]	IC50 [3] [µM]	IC50 [4] [µM]	IC50 [5] [µM]
CN1CCN(NC(=O)CN2C(=O)/C(=C/c3ccc(Br)cc3)SC2=S)CC1 [Compound 5d]	> 50	44	28.7	> 50	> 50
COc1ccc(/C=C2\SC(=S)N(CC(=O)NN3CCN(C)CC3)C2=O)cc1 [Compound 5e]	48.9	> 50	31.5	> 50	> 50
CN1CCN(NC(=O)CN2C(=O)/C(=C/c3ccccc3F)SC2=S)CC1 [Compound 5f]	> 50	6.2	22.6	42.7	26.3
CN1CCN(NC(=O)CN2C(=O)/C(=C/c3ccccc3Cl)SC2=S)CC1 [Compound 5g]	> 50	2	7.6	9.8	> 50
CN1CCN(NC(=O)CN2C(=O)/C(=C/c3ccccc3Br)SC2=S)CC1 [Compound 5h]	> 50	11.4	8.3	8.1	14.6
CN1CCN(NC(=O)CN2C(=O)/C(=C/c3ccccc3I)SC2=S)CC1 [Compound 5i]	> 50	37.6	37.1	8.8	> 50
CN1CCN(NC(=O)CN2C(=O)/C(=C/c3c(F)cccc3Cl)SC2=S)CC1 [Compound 5j]	> 50	0.8	0.3	0.1	2
CN1CCN(NC(=O)CN2C(=O)/C(=C/c3cccc(Cl)c3Cl)SC2=S)CC1 [Compound 5n]	32.8	39.5	0.6	0.3	1.1
CN1CCN(NC(=O)CN2C(=O)/C(=C/c3cc(Cl)ccc3Cl)SC2=S)CC1 [Compound 5o]	> 50	> 50	7	2.8	15.4
CN1CCN(NC(=O)CN2C(=O)/C(=C/c3c(F)cccc3F)SC2=S)CC1 [Compound 5p]	> 50	41.7	1.3	1.3	3
Cc1cccc(C)c1/C=C1\SC(=S)N(CC(=O)NN2CCN(C)CC2)C1=O [Compound 5q]	> 50	29.4	2.7	0.2	27
O=C(O)/C(S)=C/c1csc2ccccc12 [Compound 6L]	11.1	0.5	0.7	0.4	3.1
Cc1ccc(/C=C(\S)C(=O)O)cc1 [Compound 6b]	3.7	0.4	0.2	0.3	0.7
O=C(O)/C(S)=C/c1ccc(F)cc1 [Compound 6c]	5	9.7	2.7	4.1	8.2
O=C(O)/C(S)=C/c1ccc(Br)cc1 [Compound 6d]		9.4	3.3	2.3	9.9
COc1ccc(/C=C(\S)C(=O)O)cc1 [Compound 6e]	8.2	0.4	0.8	0.6	2.4
O=C(O)/C(S)=C/c1ccccc1F [Compound 6f]	12.9	3.3	1.4	0.3	4
O=C(O)/C(S)=C/c1ccccc1Cl [Compound 6g]	5.1	0.4	0.4	0.1	0.9
O=C(O)/C(S)=C/c1ccccc1I [Compound 6i]	5	3.5	0.7	1.4	
